Results reported in doi:10.1101/815415v1 (biorxiv, 2019).

Molecular target: xylanase from Bacillus circulans (BCX) (Niallia circulans, UniProt P09850)
Experiment: NMR titration, 1H-15N HSQC 2D lineshape fit
Type: binding
Conditions: 25 mM sodium acetate, pH 5.8, 6% D2O, 20 °C; active site -1/-2 subsites

Kd: 10 mM
Compound: OC1OC[C@@H](O[C@@H]2OC[C@@H](O)[C@H](O)[C@H]2O)[C@H](O)[C@H]1O (stereo partly shown) [X2, xylobiose]
